Publication PMC2894972, “Protein-Protein Interaction Antagonists as Novel Inhibitors of Non-Canonical Polyubiquitylation” (PLoS ONE, 2010)

Biological target: T1, Ubc13-Uev1 heterodimer (Homo sapiens, UniProt P61088)
T1 construct: gene UBE2N; heterodimer of purified recombinant Ubc13 and Uev1; with Ubiquitin-conjugating enzyme E2 variant 1
Test: surface plasmon resonance competition: Ubc13 preincubated with compound, injected over immobilized Uev1
Type: binding
Settings: inhibition of Ubc13-Uev1 interaction; Ubc13 400 nM; 10 mM HEPES, 0.15 M NaCl, pH 7.4; legend prints 1.1 µM

T1 sequence (P61088 whole entry): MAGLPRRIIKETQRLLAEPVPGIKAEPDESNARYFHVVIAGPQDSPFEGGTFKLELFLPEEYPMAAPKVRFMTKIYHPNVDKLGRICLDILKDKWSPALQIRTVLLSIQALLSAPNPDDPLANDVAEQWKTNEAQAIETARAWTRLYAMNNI
T1 sequence (Q13404 2-147 partner): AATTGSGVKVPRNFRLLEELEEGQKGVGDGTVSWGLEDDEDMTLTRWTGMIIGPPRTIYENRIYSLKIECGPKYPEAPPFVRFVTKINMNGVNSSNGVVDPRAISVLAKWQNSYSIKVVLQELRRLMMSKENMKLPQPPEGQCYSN

## NC(=O)CN(CCc1ccccn1)C(=O)CC1C(=O)N(CCc2ccc(F)cc2)CC(=O)N1CCc1ccc(F)cc1 (stereo not shown) [IIa, compound IIa]
  IC50: 1100 nM
